In the supplement of paper PMC8671470:

Legend:
Details in all cases: 72 h
[1] = tested on: MOLM-13
Summary of the method: (§1)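 Fifteen myeloid leukaemia cell lines were seeded in RPMI 1640 at densities titrated to the linear growth range and placed in 384-well plates with acoustically pre-printed compounds at five tenfold doses from 1 to 10,000 nM, in duplicate. After 72 h at 37 °C with 5% CO2, luminescent ATP viability was normalised to vehicle and to a positive control at 10 µM, and curves were fitted with a four-parameter log-logistic model. The IC50 was obtained from these fits.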

[2] = tested on: BV-173
Summary of the method: as §1

[3] = tested on: HEL
Summary of the method: as §1

[4] = tested on: SHI-1
Summary of the method: as §1

[5] = tested on: MV4-11
Summary of the method: as §1

[6] = tested on: THP-1
Summary of the method: as §1

[7] = tested on: Mono-Mac-6
Summary of the method: as §1

[8] = tested on: K-562
Summary of the method: as §1

[9] = tested on: LAMA-84
Summary of the method: as §1

[10] = tested on: KU-812
Summary of the method: as §1

[11] = tested on: myeloid leukemia patient primary cells Pat.2; assay: cell viability (% survival relative to DMSO control); higher = less cytotoxic
Summary of the method: (§2)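 Seventy compounds were pre-printed on 384-well plates at five tenfold concentrations between 1 and 10,000 nM, in duplicate. Thawed mononuclear cells purified by Ficoll from AML or CML patients were added at 10,000 cells/well in RPMI 1640 with 10% FBS for 72 h. Viability by CellTiter-Glo was normalised to DMSO and 10 μM proteasome-inhibitor wells. Where stated, area under the curve was taken from log-logistic fits made with the drc and PharmacoGx R packages, each fit having four parameters.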

[12] = tested on: myeloid leukemia patient primary cells Pat.3; assay: as above
Summary of the method: as §2

[13] = tested on: myeloid leukemia patient primary cells Pat.12; assay: as above
Summary of the method: as §2

[14] = tested on: myeloid leukemia patient primary cells Pat.8; assay: as above
Summary of the method: as §2

[15] = tested on: myeloid leukemia patient primary cells Pat.10; assay: as above
Summary of the method: as §2

[16] = tested on: myeloid leukemia patient primary cells Pat.1; assay: as above
Summary of the method: as §2

[17] = tested on: myeloid leukemia patient primary cells Pat.9; assay: as above
Summary of the method: as §2

[18] = tested on: myeloid leukemia patient primary cells Pat.14; assay: as above
Summary of the method: as §2

[19] = tested on: myeloid leukemia patient primary cells Pat.11; assay: as above
Summary of the method: as §2

[20] = tested on: myeloid leukemia patient primary cells Pat.5; assay: as above
Summary of the method: as §2

[21] = tested on: myeloid leukemia patient primary cells Pat.6; assay: as above
Summary of the method: as §2

[22] = tested on: myeloid leukemia patient primary cells Pat.15; assay: as above
Summary of the method: as §2

[23] = tested on: myeloid leukemia patient primary cells Pat.13; assay: as above
Summary of the method: as §2

[24] = tested on: myeloid leukemia patient primary cells Pat.4; assay: as above
Summary of the method: as §2

[25] = tested on: myeloid leukemia patient primary cells Pat.7; assay: as above
Summary of the method: as §2

[26] = tested on: HL-60; assay: area under dose-response curve (viability, 1 nM-10 uM) (fraction (0-1)); higher = more sensitive
Summary of the method: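 Four-parameter log-logistic fits in drc and PharmacoGx supplied area under the curve where it is given. Underlying viability came from CellTiter-Glo, normalised to DMSO and proteasome-inhibitor wells, with the proteasome inhibitor at 10 μM. HL-60 cells in RPMI 1640 plus 10% FBS had been rescreened against the full library at five tenfold concentrations of 1–10,000 nM, in duplicate on 384-well plates, with DMSO or 100 nM of one of three metabolic inhibitors, for 72 h at 37 °C, 5% CO2.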

O=C(/C=C/c1ccc(O)c(O)c1)OCCc1ccccc1 [Caffeic acid phenethyl ester]
Details | IC50 (cell viability)
[1] | > 10000 nM
[2] | 664 nM
[3] | 4180 nM
[4] | > 10000 nM
[5] | 1390 nM
[6] | 6.98 µM
[7] | 3470 nM
[8] | > 10000 nM
[9] | 6.17 µM
[10] | 649 nM

Details | area under dose-response curve, co-treatment: AZD3965 100 nM | area under dose-response curve, co-treatment: DMSO vehicle | area under dose-response curve, co-treatment: GSK2194069 100 nM | area under dose-response curve, co-treatment: pictilisib 100 nM | cell viability, 1 nM [%] | cell viability, 10 nM [%] | cell viability, 100 nM [%] | cell viability, 1000 nM [%] | cell viability, 10000 nM [%]
[11] | – | – | – | – | 95.4 | 98.6 | > 100 | 89.3 | 64
[12] | – | – | – | – | 92 | 83.1 | 39.1 | 41.7 | 3.62
[13] | – | – | – | – | > 100 | 95.5 | > 100 | 57.4 | 34.5
[14] | – | – | – | – | 97.7 | 80.9 | 85.1 | 29 | 5.61
[15] | – | – | – | – | 88.2 | 63.9 | 33 | 31 | 83.7
[16] | – | – | – | – | 98.5 | 93 | 98.4 | 63.3 | 44
[17] | – | – | – | – | 68.9 | 84.8 | 8.63 | 11.1 | 11.8
[18] | – | – | – | – | 95.7 | 83.5 | 80.5 | 48.9 | 16.3
[19] | – | – | – | – | 96.1 | 97.8 | > 100 | 73.5 | 38
[20] | – | – | – | – | 65.2 | 69.6 | 55.9 | 4.78 | 21.6
[21] | – | – | – | – | 98 | 93.6 | 96.9 | 65.7 | 35.2
[22] | – | – | – | – | 96.5 | 85.8 | 96.1 | 64.9 | 40.5
[23] | – | – | – | – | > 100 | 91 | 95.8 | 87.2 | 42
[24] | – | – | – | – | 89.5 | 87.7 | 86.2 | 16.7 | 2.41
[25] | – | – | – | – | 74.4 | 79.4 | 78.2 | 16.3 | < 0
[26] | 0.0691 | 0.0547 | 0.0593 | 0.138 | – | – | – | – | –

O=C1C(SCCO)=C(SCCO)C(=O)c2ccccc21
Details | IC50 (cell viability)
[1] | 381 nM
[2] | 309 nM
[3] | 1510 nM
[4] | 450 nM
[5] | 219 nM
[6] | 0.424 µM
[7] | 664 nM
[8] | 549 nM
[9] | 0.747 µM
[10] | 530 nM

Details | area under dose-response curve, co-treatment: AZD3965 100 nM | area under dose-response curve, co-treatment: DMSO vehicle | area under dose-response curve, co-treatment: GSK2194069 100 nM | area under dose-response curve, co-treatment: pictilisib 100 nM | cell viability, 1 nM [%] | cell viability, 10 nM [%] | cell viability, 100 nM [%] | cell viability, 1000 nM [%] | cell viability, 10000 nM [%]
[11] | – | – | – | – | 93.1 | > 100 | 97.1 | 55.8 | 0.14
[12] | – | – | – | – | 21.4 | 97.2 | 95.5 | 9.9 | < 0
[13] | – | – | – | – | 94.2 | 99.6 | 92 | 2.07 | < 0
[14] | – | – | – | – | 74.2 | 70 | 95.1 | 65.4 | 0.0301
[15] | – | – | – | – | 29.3 | > 100 | 60.9 | 35 | > 100
[16] | – | – | – | – | 81.5 | 92.4 | 88.1 | < 0 | < 0
[17] | – | – | – | – | 1.27 | 95.1 | 28.7 | < 0 | < 0
[18] | – | – | – | – | 41.2 | 91.4 | 61.7 | 5.04 | 4.94
[19] | – | – | – | – | 96.1 | 91.4 | 99.8 | 7.63 | 0.114
[20] | – | – | – | – | 2.39 | 98.5 | 57.2 | 2.01 | 2.39
[21] | – | – | – | – | 77.1 | > 100 | 99.3 | 71.1 | < 0
[22] | – | – | – | – | 82.6 | 89.3 | 63.2 | 2.59 | 0.4
[23] | – | – | – | – | 61.2 | 90.8 | 96.4 | 76.4 | < 0
[24] | – | – | – | – | 76.4 | 89.5 | > 100 | 3.28 | 2.39
[25] | – | – | – | – | 37.3 | 96.4 | 57.1 | < 0 | < 0
[26] | 0.139 | 0.114 | 0.125 | 0.192 | – | – | – | – | –
